23 compounds from US20230183239A1, “ECTONUCLEOTIDE PYROPHOSPHATASE-PHOSPHODIESTERASE 1 (ENPP-1) INHIBITORS AND USES THEREOF” (AbbVie Inc., priority 2017, published 2023) can be followed below.

Common to all, as to assay type: biochemical
Experiment [1] deals with T1, ENPP1 (Homo sapiens, UniProt P22413).
T1 sequence (P22413 1-925): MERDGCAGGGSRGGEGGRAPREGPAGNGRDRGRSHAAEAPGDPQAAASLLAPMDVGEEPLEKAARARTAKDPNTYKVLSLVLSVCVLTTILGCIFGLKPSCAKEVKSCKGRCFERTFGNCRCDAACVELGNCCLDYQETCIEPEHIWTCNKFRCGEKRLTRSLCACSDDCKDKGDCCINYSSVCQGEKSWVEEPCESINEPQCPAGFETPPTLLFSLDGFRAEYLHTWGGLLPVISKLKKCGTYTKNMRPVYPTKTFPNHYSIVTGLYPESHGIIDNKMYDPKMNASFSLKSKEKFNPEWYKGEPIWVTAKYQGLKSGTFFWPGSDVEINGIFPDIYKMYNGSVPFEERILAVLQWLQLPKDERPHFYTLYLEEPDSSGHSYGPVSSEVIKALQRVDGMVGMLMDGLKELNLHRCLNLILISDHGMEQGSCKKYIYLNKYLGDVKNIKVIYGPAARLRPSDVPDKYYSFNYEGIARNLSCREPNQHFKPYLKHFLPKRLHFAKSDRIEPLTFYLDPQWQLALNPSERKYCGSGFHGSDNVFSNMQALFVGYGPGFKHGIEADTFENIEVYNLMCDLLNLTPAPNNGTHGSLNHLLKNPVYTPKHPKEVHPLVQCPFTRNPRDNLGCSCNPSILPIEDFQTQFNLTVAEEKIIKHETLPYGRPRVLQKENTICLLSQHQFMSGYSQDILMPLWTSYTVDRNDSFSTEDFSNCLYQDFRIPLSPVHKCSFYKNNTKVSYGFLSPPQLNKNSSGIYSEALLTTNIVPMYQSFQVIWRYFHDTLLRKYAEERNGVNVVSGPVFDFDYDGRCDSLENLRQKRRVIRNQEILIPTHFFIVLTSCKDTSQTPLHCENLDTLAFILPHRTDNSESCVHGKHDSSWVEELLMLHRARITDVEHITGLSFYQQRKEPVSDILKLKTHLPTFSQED
As to the kind of experiment: ENPP1 enzyme assay with AMP-pNP substrate (hydrolysis of ATP analog). The protocol:
The ENPP1 assay with AMP-pNP substrate is conducted in a buffer containing 50 mM Tris-HCl (pH 8.5)/ 250 mM NaCl/0.5 mM CaCl2/1 µM ZnCl2/0.1% DMSO. Inhibitors are added at final concentrations ranging between 10 µM and 30 pM depending on the compound. Duplicate wells are run at each inhibitor concentration. The final assay volume is 40 µL and human recombinant ENPP1 is present at 60 ng/well. The assay is initiated by the addition of substrate (300 µM AMP-pNP final concentration), and incubated for 20 minutes at 37° C. […] Each assay plate also includes wells with no enzyme added (MIN OD) and wells with no inhibitor added (MAX OD). The percent inhibition of ENPP1 for each sample is then calculated as: […]
IC50 values of compounds were calculated by entering the percent inhibition values into a sigmoidal variable slope nonlinear regression model in GraphPad Prism® software.

In experiment [2] the target is T1, ENPP1. The experiment can be described thus: Indirect quantitation of 2',3'-cGAMP hydrolysis (AMP-Glo Assay kit).
In experiment [3] the target is T1, ENPP1. The experiment can be described thus: Substrate selectivity ratio, inhibition of cGAMP hydrolysis versus ATP hydrolysis. The note with it: ratio Ki AMP-pNP / Ki cGAMP. The protocol:
The selectivity ratios for inhibition of cGAMP hydrolysis versus ATP hydrolysis were then calculated as follows: […]

The mark [4] stands for this setting: AMP-pNP substrate (ATP analog), Ki from IC50 by Cheng-Prusoff, read-out: ENPP1 Inhibition _AMP-pNP: Ki.
Setting [5] is: cGAMP substrate, Ki from IC50 by Cheng-Prusoff, read-out: ENPP1 Inhibition -cGAMP: Ki.

Take `COc1cc2ncnc(NC(C)c3ccc(NS(N)(=O)=O)cc3)c2cc1OC` (stereo in doubt) [Example 253, (R)-N-(4-(1-((6,7-dimethoxyquinazolin-4-yl)amino)ethyl)phenyl)sulfamide]: the Ki (usually a dissociation constant, usually derived from enzyme kinetics or from competition with a known ligand) is 100 to 1000 nM at ENPP1 [1] (setting [4]) and below 100 nM on ENPP1 [2] (setting [5]). Further, at ENPP1 [3], the “Substrate Selectivity: Ki_AMP-pNP/Ki_cGAMP” value (“Substrate Selectivity” below) is listed as 79.4.

For the compound `COc1cc2ncnc(NC(C)c3ccc(NS(N)(=O)=O)cc3)c2cc1OC` (stereo in doubt) [Example 254, (S)-N-(4-(1-((6,7-dimethoxyquinazolin-4-yl)amino)ethyl)phenyl)sulfamide], the Ki is above 1000 nM on ENPP1 [1] (setting [4]) and below 100 nM at ENPP1 [2] (setting [5]). Besides, the “Substrate Selectivity” value on ENPP1 [3] was above 31.4.

With `NS(=O)(=O)NCCC1CCN(c2cc(-c3ccc4c(c3)OCO4)ncn2)CC1` [Example 10, N-(2-(1-(6-(benzo[d][1,3]dioxol-5-yl)pyrimidin-4-yl)piperidin-4-yl)ethyl)sulfamide], the Ki on ENPP1 [1] (setting [4]) and on ENPP1 [2] (setting [5]) was above 1000 nM throughout.

Regarding `COc1cc2ncc(C(N)=O)c(N3CCC(CCNS(N)(=O)=O)CC3)c2cc1OC` [Example 19, 6,7-dimethoxy-4-(4-(2-(sulfamoylamino)ethyl)piperidin-1-yl)quinoline-3-carboxamide], the Ki is above 1000 nM at ENPP1 [1] (setting [4]) and below 100 nM on ENPP1 [2] (setting [5]). On ENPP1 [3], the “Substrate Selectivity” value is above 95.8.

`COc1cc2ncnc(N3CCC4(CC3)CN(S(N)(=O)=O)C4)c2cc1OC` [Example 30, 7-(6,7-dimethoxyquinazolin-4-yl)-2,7-diazaspiro[3.5]nonane-2-sulfonamide]: on ENPP1 [1] (setting [4]), the Ki was above 1000 nM. In addition, at ENPP1 [3], the “Substrate Selectivity” value amounted to 39.4.

For `COc1cc2ncnc(N3CCN(C(=O)CNS(N)(=O)=O)CC3)c2cc1OC` [Example 52, N-(2-(4-(6,7-dimethoxyquinazolin-4-yl)piperazin-1-yl)-2-oxoethyl)sulfamide], the Ki is 100 to 1000 nM on ENPP1 [1] and below 100 nM at ENPP1 [2]. Moreover, on ENPP1 [3], the “Substrate Selectivity” value came to 58.1.

Turning to `COc1cc2nccc(NCc3ccc(S(N)(=O)=O)cc3)c2cc1F` [Example 56, 4-(((6-fluoro-7-methoxyquinolin-4-,yl)amino)methyl)benzenesulfonamide], the Ki on ENPP1 [1] (setting [4]) and at ENPP1 [2] (setting [5]) was below 100 nM throughout. Also, the “Substrate Selectivity” value at ENPP1 [3] amounted to 6.3.

As for `COc1ccc2c(N3CCc4cc(NS(N)(=O)=O)ccc43)ccnc2c1` [Example 59, N-(1-(7-methoxyquinolin-4-yl)indolin-5-yl)sulfamide], the Ki on ENPP1 [1] (setting [4]) and on ENPP1 [2] (setting [5]) was below 100 nM each time. Moreover, on ENPP1 [3], the “Substrate Selectivity” value was determined as 29.6.

As to `COc1cc2ncc(C)c(-c3ccc4c(c3)CN(S(N)(=O)=O)CC4)c2cc1OC` [Example 60, 7-(6,7-dimethoxy-3-methylquinolin-4-yl)-3,4-dihydroisoquinoline-2(1H)-sulfonamide], the Ki at ENPP1 [1] (setting [4]) and at ENPP1 [2] (setting [5]) was below 100 nM in each case. In addition, at ENPP1 [3], the “Substrate Selectivity” value is 16.7.

`COc1cc2nccc(-c3ccc(CN(C)S(N)(=O)=O)cc3)c2cc1OC` [Example 61, N-(4-(6,7-dimethoxyquinolin-4-yl)benzyl)-N-methylsulfamide]: the Ki on ENPP1 [1] (setting [4]) and on ENPP1 [2] (setting [5]) was below 100 nM in each case. The “Substrate Selectivity” value at ENPP1 [3] amounted to 23.7.

`COc1ccc2c(-c3ccc(CNS(N)(=O)=O)c(F)c3)ccnc2c1` [Example 62, N-(2-fluoro-4-(7-methoxyquinolin-4-yl)benzyl)sulfamide]: the Ki on ENPP1 [1] (setting [4]) and on ENPP1 [2] (setting [5]) was below 100 nM in each case. Besides, the “Substrate Selectivity” value on ENPP1 [3] turned out to be 16.1.

Turning to `COc1ccc2c(-c3ccc(CNS(N)(=O)=O)cc3)ccnc2n1` [Example 63, N-(4-(7-methoxy-1,8-naphthyridin-4-yl)benzyl)sulfamide], the Ki on ENPP1 [1] (setting [4]) and at ENPP1 [2] (setting [5]) was below 100 nM throughout. Moreover, the “Substrate Selectivity” value at ENPP1 [3] was 28.0.

Turning to `COc1cc2ncc(C#N)c(N3CCC4(CC3)CCN(S(N)(=O)=O)C4)c2cc1OC` [Example 64, 8-(3-cyano-6,7-dimethoxyquinolin-4-yl)-2,8-diazaspiro [4.5] decane-2-sulfonamide], the Ki at ENPP1 [1] (setting [4]) and at ENPP1 [2] (setting [5]) was below 100 nM in each case. Also, the “Substrate Selectivity” value at ENPP1 [3] is 11.9.

In the case of `COc1ccc2c(N3CCC4(CC3)CCN(S(N)(=O)=O)C4)ncnc2c1` [Example 65, 8-(7-methoxyquinazolin-4-yl)-2,8-diazaspiro [4.5] decane-2-sulfonamide], the Ki at ENPP1 [1] (setting [4]) and on ENPP1 [2] (setting [5]) was below 100 nM each time. Besides, the “Substrate Selectivity” value at ENPP1 [3] came out at 38.7.

`COc1cc2ncc(F)c(N3CCC(CCNS(N)(=O)=O)CC3)c2cc1OC` [Example 66, N-(2-(1-(3-fluoro-6,7-dimethoxyquinolin-4-yl)piperidin-4-yl)ethyl)sulfamide]: the Ki at ENPP1 [1] (setting [4]) and at ENPP1 [2] (setting [5]) was below 100 nM each time. Moreover, the “Substrate Selectivity” value on ENPP1 [3] was 35.1.

In the case of `COc1cc2ncc(F)c(-c3ccc(CNS(N)(=O)=O)cc3)c2cc1OC` [Example 67, N-(4-(3-fluoro-6,7-dimethoxyquinolin-4-yl)benzyl)sulfamide], the Ki on ENPP1 [1] (setting [4]) and on ENPP1 [2] (setting [5]) was below 100 nM in each case. Moreover, the “Substrate Selectivity” value on ENPP1 [3] was determined as 67.2.

Regarding `COc1cc2nccc(-c3ccc(CNS(N)(=O)=O)c(F)c3)c2cc1OC` [Example 69, N-(4-(6,7-dimethoxyquinolin-4-yl) -2-fluorobenzyl)sulfamide], the Ki on ENPP1 [1] (setting [4]) and at ENPP1 [2] (setting [5]) was below 100 nM throughout. Moreover, on ENPP1 [3], the “Substrate Selectivity” value came to 8.9.

On to `COc1ccc2ncnc(N3CCC4(CC3)CCN(S(N)(=O)=O)C4)c2c1` [Example 70, 8-(6-methoxyquinazolin-4-yl)-2,8-diazaspiro [4.5] decane-2-sulfonamide], for which the Ki at ENPP1 [1] (setting [4]) and on ENPP1 [2] (setting [5]) was below 100 nM throughout. Also, the “Substrate Selectivity” value on ENPP1 [3] is 15.5.

In the case of `COc1ccc2c(Oc3ccc(NS(N)(=O)=O)cc3F)ccnc2c1` [Example 71, N-(3-fluoro-4-((7-methoxyquinolin-4-yl)oxy)phenyl)sulfamide], the Ki at ENPP1 [1] (setting [4]) and on ENPP1 [2] (setting [5]) was below 100 nM throughout. In addition, the “Substrate Selectivity” value on ENPP1 [3] was 13.3.

Take `COc1cc2nccc(Nc3ccc(NS(=O)(=O)C(F)(F)F)cc3)c2cc1OC` [Example 174, N-(4-((6,7-dimethoxyquinolin-4-yl)amino)phenyl)-1,1,1-trifluoromethanesulfonamide]: the figures for the Ki on ENPP1 [1] (setting [4]) and on ENPP1 [2] (setting [5]) were above 1000 nM and 100 to 1000 nM, respectively.

Regarding `COc1cc2ncnc(N(C)c3ccc(NS(N)(=O)=O)cc3)c2cc1OC` [Example 190, N-(4-((6,7-dimethoxyquinazolin-4-yl)(methyl)amino)phenyl)sulfamide], the Ki on ENPP1 [1] (setting [4]) and at ENPP1 [2] (setting [5]) was above 1000 nM each time.

As to `COc1ccc2c(-c3ccc4c(c3)CN(S(N)(=O)=O)CC4)c(C#N)cnc2c1` [Example 249, 7-(3-cyano-7-methoxyquinolin-4-yl)-3,4-dihydroisoquinoline-2(1H)-sulfonamide], the Ki at ENPP1 [1] (setting [4]) was above 1000 nM; at ENPP1 [2] (setting [5]) it was 100 to 1000 nM.

In the case of `COc1cc2nccc(Oc3ccc(NS(N)(=O)=O)cc3)c2cc1F` [Example 282, N-(4-((6-fluoro-7-methoxyquinolin-4-yl)oxy)phenyl)sulfamide], the inhibitory constant (Ki) on ENPP1 [1] (setting [4]) and on ENPP1 [2] (setting [5]) was below 100 nM each time.
